Source: patent US10052387B2, “Ceramide reversal of multi-drug resistance” (Memorial Sloan-Kettering Cancer Center, priority 2013, dated 2018)

B1: sphingomyelinase: exogenous bacterial sphingomyelinase used to generate endogenous ceramide (protein, UniProt P09599 28-333, looked up)
Sphingomyelinase C: DTSTDQNNTLKVMTHNVYMLSTNLYPNWGQSQRADLIGAADYIKNQDVVILNEVFDNSASDRLLGNLKKEYPNQTAVLGRSNGNEWDKTLGSYSSSTPEDGGVAIVSKWPIVEKIQYVFAKGCGPDNLSNKGFVYTKIKKNDRFVHVIGTHLQAEDSMCGKTSPASVRTNQLKEIQDFIKNKNIPNDEYVLFGGDMNVNKINAENNSDSEYASMFKTLHASIPSYTGHTATWDATTNSIAKYNFPDSPAEYLDYIIASKDHANPSFIENKVLQPKSPQWTVTSWLKKYTYDDYSDHYPVAATISMK

How the values were obtained:
ADX cells [1] = assay: Daunorubicin trafficking into the nucleus of ADX cells (confocal microscopy); type: cell-based, Chinese hamster; details: for percent of ADX cells displaying nuclear daunorubicin: Mean ± 95% CI
Description: ADX cells were grown on 4-well slides, 20 uM daunorubicin was added for […], followed by various dose of liposomes containing C16:0 ceramide, sphingomyelin, C16:0 dihydroceramide or phosphatidylcholine for 1 h. Cells were examined under Leica SP-5 inverted confocal microscope. Y axis represents percent of cells with nuclear drug.
ADX cells were grown on 4-well slides. 3.5×10^4 ADX cells were incubated with 20 μM daunorubicin in DMEM HG:F-12 medium without serum. After 2 hours, at which time daunorubicin had reached steady state accumulation in cytoplasmic vesicles, liposomes containing long and very long chain ceramides were added to cells at 0, 1, 2, and 5 μM. After a 1 hour-incubation at 37° C., nuclear localization of daunorubicin was determined by confocal microscopy. Cells were examined under Leica SP-5 inverted confocal microscope. Y axis represents percent of cells with nuclear drug.

ADX cells [2] = assay: MTT cell survival assay in MDR ADX cells; type: cell-based, Chinese hamster; details: for enhanced cell kill: ADX MDR cells with daunorubicin; for chemosensitization of ADX cells by sphingomyelinase: exogenous sphingomyelinase, data not shown; for EC50: Cricetulus griseus
Description: (§1) A, time course of sphingomyelin changes in DC-3F and ADX cells after B. cereus SMase (0.05 U/mL) treatment. B, time course of ceramide generation. C, DC-3F and ADX cells were treated with increasing doses of B. cereus SMase (0-2 U/mL) and cell survival was measured by MTT (3-(4,5-dimethylthiazol-2-yl)-2,5-diphenyltetrazolium bromide) tetrazolium reduction (MTT) assay. D, Cells were seeded in 96-well plates (2×10^3 cells/well) in a 0.1 ml DME:F12 medium containing 5% FBS and cultured at 37° C. for 24 hours before addition of daunorubicin.
(§2) A, DC-3F and ADX cells were treated with increasing doses of daunorubicin. B, DC-3F and ADX cells were incubated with B. cereus SMase (0.0-0.05 U/ml) and treated with daunorubicin for 1 day. Cell survival was measured by MTT assay. Data are from one representative of three independent studies.

DC-3F cells = assay: MTT cell survival assay in parental DC-3F cells; type: cell-based, Chinese hamster
Description: as §1, §2

DC-3F tumor = assay: DC-3F flank tumor response to doxorubicin; type: in vivo, athymic nude mice; details: 8 mg/kg×3
Description: (§3) Tumors were created in the right flanks of athymic nude mice using 5×10^6 DC-3F cells or ADX cells and at tumor volumes of 100-150 mm^3 were treated with Doxorubicin 8 mg/kg i.v. weekly (arrows) for 3 weeks. Tumor volumes were measured daily according to the formula of Kim et al. (Cancer Res 1986: 46, 1120) for 3 months. Collated data in upper panels represent mean±SEM. Data in lower panels represent individual tumor patterns.

[3] = ×4 doses/25 g mouse; cited from earlier work
ADX tumor = assay: ADX MDR flank tumor response; details: 8 mg/kg×3
Description: as §3
5×10^6 ADX cells were implanted into athymic nude mice by s.c. injection. Treatment was started on day 21 when tumor was 100 mm^3. 8 mg/kg Dox (arrows) was injected i.v. every 7 days followed by 1 μmol/mouse liposomal C16:0 ceramide for a total of 3 treatments (total Dox=24 mg/kg, the MTD in mice). Left panel of A) represents individual tumor growth with Dox alone. Right panel of A) represents tumor response when treated with Dox+1 μmol/mouse liposomal ceramide. Panel B is mean tumor growth response of Dox alone and combined treatment.
ADX flank tumors (in athymic Nude-FoxN1 nu mice) were loaded to isotopic steady state for 1 h by systemic administration of Dox (20 mg/kg), and 1 μmol of C16:0 ceramide containing liposomes/mouse was injected i.v. Mice were sacrificed 1 h thereafter, and tumors snap frozen in OCT at −80° C.

[4] = Doxorubicin MTD studies in mice; details: mouse, in vivo, intravenous, 8 mg/kg
Description: Methods: Liposome Delivery, MTD, PK: Liposomes and free doxorubicin are delivered intravenously and MTD and PK determined in accordance with known protocols.

Molecule | percent of ADX cells displaying nuclear daunorubicin (ADX cells [1]; ceramide 1 μM) [%] | percent of ADX cells displaying nuclear daunorubicin (ADX cells [1]; ceramide 2 μM) [%] | percent of ADX cells displaying nuclear daunorubicin (ADX cells [1]; ceramide 5 μM) [%] | other results
CCCCCCCCCCCCC/C=C/[C@@H](O)[C@H](CO)NC(C)=O [C2:0] | 7.5 ± 2.5 | 12.5 ± 3.3 | 7.0 ± 1.6 | 
CCCCCCCCCCCCC/C=C/[C@@H](O)[C@H](CO)NC(=O)CCC [C4:0] | 8.0 ± 2.4 | 11.9 ± 2.7 | 13.0 ± 2.1 | 
CCCCCCCCCCCCC/C=C/[C@@H](O)[C@H](CO)NC(=O)CCCCC [C6:0] | 8.8 ± 2.4 | 12.2 ± 2.0 | 16.2 ± 2.3 | 
CCCCCCCCCCCCC/C=C/[C@@H](O)[C@H](CO)NC(=O)CCCCCCC [C8:0] | 11.4 ± 1.9 | 19.8 ± 2.1 | 35.5 ± 2.4 | 
CCCCCCCCCCCCC/C=C/[C@@H](O)[C@H](CO)NC(=O)CCCCCCCCC [C10:0] | 6.8 ± 2.2 | 13.1 ± 2.8 | 20.0 ± 2.4 | 
CCCCCCCCCCCCC/C=C/[C@@H](O)[C@H](CO)NC(=O)CCCCCCCCCCC [C12:0] | 8.9 ± 3.0 | 18.8 ± 3.2 | 22.3 ± 3.1 | 
CCCCCCCCCCCCC/C=C/[C@@H](O)[C@H](CO)NC(=O)CCCCCCCCCCCCC [C14:0] | 7.4 ± 2.4 | 17.6 ± 3.4 | 23.4 ± 3.2 | 
CCCCCCCCCCCCC/C=C/[C@@H](O)[C@H](CO)NC(=O)CCCCCCCCCCCCCCC [C16:0, N-palmitoyl (C16:0) ceramide] | 13.9 ± 1.7 | 24.3 ± 2.0 | 48.3 ± 2.7 | enhanced cell kill (ADX cells [2]): 25 fold; trafficking of daunorubicin into the nucleus (ADX cells [1]; ADX cells pre-loaded with 20 μM daunorubicin): nuclear transfer occurred only with C16:0 ceramide treatment
N.N.[Cl][Pt][Cl] [cis-platinum] |  |  |  | chemosensitization of ADX cells by sphingomyelinase (ADX cells [2]): chemosensitization of ADX cells was also achieved
COc1cccc2c1C(=O)c1c(O)c3c(c(O)c1C2=O)C[C@@](O)(C(C)=O)C[C@@H]3O[C@H]1C[C@H](N)[C@H](O)[C@H](C)O1 [daunorubicin] |  |  |  | EC50 (DC-3F cells; Cricetulus griseus, DC3F, parental DC-3F cells): 0.8 µM; EC50 (ADX cells [2]; ADX cells treated with increasing doses of exogenous sphingomyelinase): 4 µM; EC50 (ADX cells [2]; ADX cells, without sphingomyelinase): 92 µM
COc1cccc2c1C(=O)c1c(O)c3c(c(O)c1C2=O)C[C@@](O)(C(=O)CO)C[C@@H]3O[C@H]1C[C@H](N)[C@H](O)[C@H](C)O1 [doxorubicin] |  |  |  | tumor response to doxorubicin (DC-3F tumor): sensitive; published MTD [3]: about 9 mg/kg; tumor response to doxorubicin (ADX tumor): totally resistant; MTD at 3 weeks [4]: 24 mg/kg
CN[C@@H]1C[C@H]2O[C@@](C)([C@@H]1OC)n1c3ccccc3c3c4c(c5c6ccccc6n2c5c31)C(=O)NC4 [staurosporine] |  |  |  | chemosensitization of ADX cells by sphingomyelinase (ADX cells [2]): no sensitization was achieved
CC[C@]1(O)C[C@H]2CN(CCc3c([nH]c4ccccc34)[C@@](C(=O)OC)(c3cc4c(cc3OC)N(C=O)[C@H]3[C@@](O)(C(=O)OC)[C@H](OC(C)=O)[C@]5(CC)C=CCN6CC[C@]43[C@@H]65)C2)C1 [vincristine] |  |  |  | chemosensitization of ADX cells by sphingomyelinase (ADX cells [2]): chemosensitization of ADX cells was also achieved
B1 |  |  |  | effect of sphingomyelinase treatment on DC-3F cells (DC-3F cells; daunorubicin sensitivity): unaffected; enhanced cell kill (ADX cells [2]): 25 fold
